Data set [1] relates to Frings audiogenic seizure susceptible mice. As to the kind of experiment: Audiogenic seizure susceptibility of Frings mice. It is filed as in vivo. As to conditions: for P.I.: Table 6, TD50/ED50.
Method: All compounds were administered i.p. Varying doses of the compounds were tested. At the predetermined time of peak anticonvulsant effect, individual mice were placed into a round Plexiglas chamber (diameter, 15 cm; height, 18 cm) pitted with an audio transducer (Model A5-ZC; FET Research & Development, Salt Lake City, Utah) and exposed to a high intensity sound stimulus (110 decibels, 11 KHz) for 25 seconds. Animals not displaying tonic forelimb or hindlimb extension were considered protected. The effect of the test compounds on motor performance was assessed by the rotorod test (Dunham and Miya, 1957). For this procedure, mice were tested for their ability to maintain balance on a rotating (6 rpm) knurled Plexiglas rod (1 inch diameter) for one minute. Mice unable to maintain balance in three successive trials during the test period were considered toxic. The median effective dose (ED50) and the median toxic dose (TD50) was calculated by probit analysis (Finney, 1971). For these studies, the dose of each test substance was varied between the limits of 0 and 100% protection and toxicity. The protective index (PI) is TD50/ED50.
A short description of a further data set: in vivo. As to conditions: Frings, mouse.
The next data set has as its target T1, MT2 receptor subtype (Homo sapiens, UniProt P49286).
T1 construct: host or cells: NIH-3T3 cells
T1 sequence (P49286 1-362): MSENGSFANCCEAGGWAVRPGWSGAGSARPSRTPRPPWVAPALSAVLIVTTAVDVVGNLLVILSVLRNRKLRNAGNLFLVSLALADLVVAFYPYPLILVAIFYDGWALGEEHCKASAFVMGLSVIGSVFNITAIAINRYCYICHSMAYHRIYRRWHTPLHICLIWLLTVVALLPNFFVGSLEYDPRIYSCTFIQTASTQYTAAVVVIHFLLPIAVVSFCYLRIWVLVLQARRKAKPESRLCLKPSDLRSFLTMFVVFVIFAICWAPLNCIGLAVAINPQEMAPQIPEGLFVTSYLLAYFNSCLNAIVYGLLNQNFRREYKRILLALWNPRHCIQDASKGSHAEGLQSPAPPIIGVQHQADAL
The note with it: radioligand binding, clones in NIH-3T3 cells; cited from earlier work.

The test system of data set [2] is Frings audiogenic seizure-susceptible mice. The experiment in a line: Rotorod test of motor performance (toxicity) in Frings mice. The note with it: Table 6, i.p., rotorod. In general terms: The rotarod test checks motor coordination on a turning rod.
Method: (§1) All compounds were administered i.p. Varying doses of the compounds were tested. […] For this procedure, mice were tested for their ability to maintain balance on a rotating (6 rpm) knurled Plexiglas rod (1 inch diameter) for one minute. Mice unable to maintain balance in three successive trials during the test period were considered toxic. […] For these studies, the dose of each test substance was varied between the limits of 0 and 100% protection and toxicity. The protective index (PI) is TD50/ED50.
In the next data set the test system is rat. As to conditions: cited from earlier work.
In another data set the test system is mice. As to the kind of experiment: Elevated platform test for phencyclidine-like behavioral effects. It is filed as in vivo. As to conditions: 44.5 nmol dose, control. The procedure:
The in vivo phencyclidine-like behavioral effects of CGX-031-120 is assessed by the elevated platform test as described by Evoniuk et al. (1991). The platform test is a rapid method for evaluating the behavioral effects of phencyclidine-like dissociative anesthetics in mice. […] Alternatively, as a control, a 44.5 nmol dose of MK 801 (dizocilpine) elicited 87.5% drug-induced falls from the elevated platform.

A short description of data set [3]: Formalin model of persistent pain (Example 11). It is filed as in vivo. As to the method: In this model, two distinct phases of nociceptive activity (paw licking) are observed. […] The second phase is caused by the release of inflammatory factors from tissue damage caused by formalin injection. This phase lasts for 30 to 40 minutes, and is a model of persistent inflammatory pain. The second phase is also predictive of analgesic drugs that will show efficacy in models of chronic and neurophathic pain. [drawing 2]

The conditions of data set [4]: Sugden's study; cited from earlier work.
For data set [5] the following is noted: Sugden's study; cited from earlier work. This is another data set of the same source.
For the next data set, the system named is rodents. As to conditions: 25 μg chronically for 13 weeks; cited from earlier work.
Data set [6] has as its system children with sleep disturbances. As to conditions: single dose of 5-10 mg; cited from earlier work.
Setting [7] is: Mus musculus, ip, Table 6, i.p., time of peak effect, read-out: ED50.
Where [8] appears, read: Table 6, i.p., time of peak effect.

SMILES strings stand for the structures. Like-named read-outs stand apart in the source and are kept apart here. Where only a bound is given, the exact number is not on record here.

Method for in vivo: as §1

Usually ED50 stands for the dose that gives a 50% effect, or the effect in half of the subjects. For the compound `CCCC(CCC)C(=O)O` [Depakote ®, reference compound], in data set [1] (setting [7]), the ED50 was found to be 155 mg/kg. The same compound showed a P.I. in data set [1] of 2.6.
As for `O=C1NC(=O)C(c2ccccc2)(c2ccccc2)N1` [Dilantin ®, reference compound], the ED50 in [1] (setting [7]) was 3.9 mg/kg. Moreover, in [1], the P.I. was found to be 10.5. In “in vivo” (ip), this compound yielded a TD50 of 41 mg/kg.
For `NC(=O)OCC(COC(N)=O)c1ccccc1` [Felbatol ®, reference compound], in that order: 10 mg/kg, 22 and 220 mg/kg.
With `CCCC(=O)NCCc1c2n(c3ccc(OC)cc13)Cc1ccccc1-2` [IIK7, N-butanoyl-2-(2-methoxy-6H-isoindolo-[2,1a]-indol-11-yl)-ethanamine], the “selectivity for the MT2 receptor subtype” value on MT2 receptor subtype is reported as 140 fold.
`O=C1CN=C(c2ccccc2Cl)c2cc([N+](=O)[O-])ccc2N1` [Klonipin ®, reference compound] yielded a P.I. in [1] of 2.6. Also, the “ED50” value in data set [1] (setting [8]) came to 0.10 mg/kg. Moreover, the “TD50” value in [2] was 0.26 mg/kg.
On to `CC(=O)NCCc1c(Cc2ccccc2)[nH]c2ccccc12` [Luzindole], for which the “antagonism of melatonin induced anti-nociception” value in the data set on rat (i.c.v. (Luzindole 50 & 100 μg)) is given as “antagonized”.
On to `C[C@]12N[C@H](Cc3ccccc31)c1ccccc12` [MK 801, reference compound], for which, in the data set on mice, the “drug-induced falls from the elevated platform” value is given as 87.5%.
For `COc1ccc2[nH]cc(CCNC(C)=O)c2c1` [Melatonin, N-acetyl-5-methoxytryptamine], the median effective dose (ED50) in [1] (Mus musculus, ip) was 82 mg/kg; in [1] (audiogenic mouse model, read-out: ED50) it was 83 mg/kg. In addition, the “licking time following formalin injection” value in data set [3] (both phases, 5 doses) was “dose-dependently reduced the licking time”. Also, the “dose at which reduction of licking time reaches significance” value in data set [3] (phase one) is given as no less than 100 mg/kg; in data set [3] (phase two), no less than 200 mg/kg. In [4], the “ED50 v 3-MPA” value is 115 mg/kg. Further, the “ED50 v ECS” value in data set [5] is given as 159 mg/kg. For the same compound, the “number and severity of seizures induced by PTZ” value in the data set with rodents was “reduced the number and severity of seizures”. Also, the “frequency of epileptic attacks” value in data set [6] is listed as “positive effect”. For the same compound, the anti-nociceptive effect entry in the data set with rat (ip 30, 60, 120 mg/kg) is listed as “dose-dependent anti-nociceptive effect”. In addition, the TD50 in “in vivo” (intraperitoneal) is 363 mg/kg; in the data set “in vivo” (ip), 342 mg/kg.
Compound `NC(=O)N1c2ccccc2C=Cc2ccccc21` [Tegratol ®, reference compound] had a P.I. in data set [1] of 4.1. Besides, the “ED50” value in data set [1] (setting [8]) amounted to 11.2 mg/kg. In addition, the “TD50” value in data set [2] stood at 45.4 mg/kg.
In data set [1], `CCC1(C)CC(=O)NC1=O` (stereo not shown) [Zarontin ®, reference compound] displayed a P.I. of 1.04. Besides, the TD50 in the data set “in vivo” (ip) is 340 mg/kg.

(Values after patent US20020040018A1, “Subtype selective melatonergics” (priority 2000, published 2002).)
